{"source": "patent US10538532B2", "about": "“Hepatitis B antiviral agents” (ENANTA PHARMACEUTICALS, INC., priority 2016, dated 2020)", "data": [{"test_system": "HBV", "experiment": "HepAD38 antiviral assay: reduction of viral product accumulation (virion DNA by qPCR, HBsAg or HBeAg by ELISA)", "format": "cell-based, hepatitis B virus", "conditions": "HepAD38 cells, five days after compound addition; concentration reducing viral product accumulation by 50% relative to no drug controls; read-out: HepAD38 EC50", "experimental": "(§1) Methods: HepAD38 cells are maintained as previously reported (Ladner et al, Antimicrob. Agents Chemother. 1997, […], 1715). Briefly, cells are passaged upon attaining confluency in DMEM/F12 media in the presence of 10% FBS, Penn/Strep, 250 μg/mL G418, and 1 ug/ml tetracycline. Novel compounds are screened by first washing cells three times with PBS to remove tetracycline, and plating in 96 well plates at 35,000 cells/well. Compounds dissolved in DMSO are then diluted 1:200 into wells containing cells. Five days after compound addition, material is harvested for analysis. For an extended 8 day analysis, cells are plated and treated as described above, but media and compound are refreshed on d2 and d5 post initial treatment.\n(§2) On harvest day, virion DNA is obtained by lysing with Sidestep Lysis and Stabilization Buffer and then quantified via quantitative real time PCR. Commercially available ELISA kits are used to quantitate the viral proteins HBsAg (Alpco) or HbeAg (US Biological) by following the manufacturer's recommended protocol after diluting samples to match the linear range of their respective assays. Irrespective of readout, compound concentrations that reduce viral product accumulation in the cell lysates or supernatants by 50% relative to no drug controls (EC50) are reported; EC50 ranges are as follows: A<0.1 μM; B 0.1-0.4 μM; C>0.4 μM.", "units": {"EC50": "µM"}, "values": [{"smiles": "O=C(Nc1cc(F)c(F)c(F)c1)c1ccc(Cl)c(S(=O)(=O)C2CC3O[C@H]3C2)c1", "note": "(some centres unmarked) [Example 87]", "EC50": "0.1 to 0.4"}, {"smiles": "O=C(Nc1cc(F)c(F)c(F)c1)c1ccc(Cl)c(S(=O)(=O)[C@H]2CC3CCC(C2)[C@]3(O)CO)c1", "note": "[Example 208]", "EC50": "> 0.4"}, {"smiles": "C[C@]1(O)C2CCC1C[C@H](S(=O)(=O)c1cc(C(=O)Nc3cc(F)c(F)c(F)c3)ccc1Cl)C2", "note": "[Example 251]", "EC50": "> 0.4"}]}, {"test_system": "HBV", "experiment": "HepAD38 antiviral assay: reduction of viral product accumulation (virion DNA by qPCR, HBsAg or HBeAg by ELISA)", "format": "cell-based, hepatitis B virus", "conditions": "Hepatitis B virus, HePAD38, 120 h, HepAD38 cells, five days after compound addition; concentration reducing viral product accumulation by 50% relative to no drug controls; read-out: HepAD38 EC50", "experimental": "as §1, §2", "units": {"EC50": "µM"}, "values": [{"smiles": "O=C(Nc1cc(F)c(F)c(F)c1)c1ccc(Cl)c(S(=O)(=O)[C@H]2C3CCC2C[C@H](CO)C3)c1", "note": "[Example 106]", "EC50": "< 0.1"}, {"smiles": "CC(=O)NC[C@]1(O)C2CCC1C[C@@H](S(=O)(=O)c1cc(C(=O)Nc3cc(F)c(F)c(F)c3)ccc1Cl)C2", "note": "[Example 345]", "EC50": "< 0.1"}, {"smiles": "O=C(Nc1cc(F)c(F)c(F)c1)c1ccc(Cl)c(S(=O)(=O)C2CC[C@@H](O)[C@@H](O)CC2)c1", "note": "(some centres unmarked) [Example 83]", "EC50": "0.1 to 0.4"}, {"smiles": "CC(C)(c1ccncc1)S(=O)(=O)c1cc(C(=O)Nc2cc(F)c(F)c(F)c2)ccc1Cl", "note": "[Example 121]", "EC50": "> 0.4"}, {"smiles": "O=C(Nc1cc(F)c(F)c(F)c1)c1ccc(Cl)c(S(=O)(=O)C2CCN(c3ccccn3)CC2)c1", "note": "[Example 95]", "EC50": "> 0.4"}, {"smiles": "O=C(Nc1cc(F)c(F)c(F)c1)c1ccc(Cl)c(S(=O)(=O)C2CCCCC2)c1", "note": "[Example 12]", "EC50": "0.1 to 0.4"}, {"smiles": "CN(C)[C@H]1CC[C@H](S(=O)(=O)c2cc(C(=O)Nc3cc(F)c(F)c(F)c3)ccc2Cl)CC1", "note": "[Example 73]", "EC50": "> 0.4"}, {"smiles": "CCOC(=O)C(F)(F)S(=O)(=O)c1cc(C(=O)Nc2cc(F)c(F)c(F)c2)ccc1Cl", "note": "[Example 93]", "EC50": "> 0.4"}, {"smiles": "O=C(Nc1cc(F)c(F)c(F)c1)c1ccc(Cl)c(S(=O)(=O)[C@H]2CC3CCC(C2)[C@]3(O)CN2CCOCC2)c1", "note": "[Example 336]", "EC50": "< 0.1"}, {"smiles": "O=C(Nc1ccnc(Cl)c1)c1ccc(Cl)c(S(=O)(=O)[C@H]2CC[C@H](O)CC2)c1", "note": "[Example 24]", "EC50": "> 0.4"}, {"smiles": "O=C(Nc1cc(F)c(F)c(F)c1)c1ccc(Cl)c(S[C@H]2CC[C@H](O)CC2)n1", "note": "[Example 61]", "EC50": "> 0.4"}, {"smiles": "O=C(Nc1cc(F)c(F)c(F)c1)c1ccc(Cl)c(S(=O)(=O)[C@H]2C3CC[C@H]2C[C@](O)(C#Cc2ccccc2)C3)c1", "note": "[Example 167]", "EC50": "0.1 to 0.4"}, {"smiles": "O=C(Nc1cc(F)c(F)c(F)c1)c1ccc(Cl)c(S(=O)(=O)C[C@@H]2C[C@@H](O)[C@@H](O)C2)c1", "note": "[Example 102]", "EC50": "0.1 to 0.4"}, {"smiles": "O=C(Nc1cc(F)c(F)c(F)c1)c1ccc(Cl)c(S(=O)(=O)[C@H]2C3CC[C@H]2C[C@](O)(COC/C=N/O)C3)c1", "note": "[Example 320]", "EC50": "< 0.1"}, {"smiles": "O=C(Nc1cc(F)c(F)c(F)c1)c1ccc(Cl)c(S(=O)(=O)CC2CCCCC2)c1", "note": "[Example 36]", "EC50": "> 0.4"}, {"smiles": "Cc1c(NC(=O)c2ccc(Cl)c(S(=O)(=O)[C@]3(C)CC[C@@H](O)CC3)c2)cc(F)c(F)c1F", "note": "[Example 19]", "EC50": "> 0.4"}, {"smiles": "O=C(Nc1cc(F)c(F)c(F)c1)c1ccc(Cl)c([S+]([O-])[C@H]2C3CC[C@H]2C[C@](O)(CO)C3)c1", "note": "(some centres unmarked) [Example 138]", "EC50": "> 0.4"}, {"smiles": "COc1ccccc1CO/N=C/[C@]1(O)CC2CC[C@@H](C1)[C@H]2S(=O)(=O)c1cc(C(=O)Nc2cc(F)c(F)c(F)c2)ccc1Cl", "note": "[Example 238]", "EC50": "0.1 to 0.4"}, {"smiles": "O=C(Nc1cc(F)c(F)c(F)c1)c1ccc(Cl)c(S(=O)(=O)[C@H]2CC3CCC(C2)[C@]3(O)c2ccc(F)cn2)c1", "note": "[Example 323]", "EC50": "< 0.1"}, {"smiles": "O=C(Nc1cc(F)c(F)c(F)c1)c1ccc(Cl)c(S(=O)(=O)C[C@@H]2C3CC[C@H]2C[C@](O)(CO)C3)c1", "note": "[Example 178]", "EC50": "< 0.1"}, {"smiles": "O=C(Nc1cc(F)c(F)c(F)c1)c1ccc(Cl)c(S(=O)(=O)CCCCO[C@H]2C3CC[C@H]2C[C@](O)(CO)C3)c1", "note": "[Example 165]", "EC50": "> 0.4"}, {"smiles": "C#C[C@@]1(O)CC2CC[C@@H](C1)[C@H]2S(=O)(=O)c1cc(C(=O)Nc2cc(F)c(F)c(F)c2)ccc1Cl", "note": "[Example 161]", "EC50": "< 0.1"}, {"smiles": "C=CC[C@]1(O)CC2CCC(C1)[C@@H]2S(=O)(=O)c1cc(C(=O)Nc2cc(F)c(F)c(F)c2)ccc1Cl", "note": "[Example 173]", "EC50": "< 0.1"}, {"smiles": "O=C(Nc1cc(F)c(F)c(F)c1)c1ccc(Cl)c(O[C@H]2CC[C@H](O)CC2)c1", "note": "[Example 25]", "EC50": "> 0.4"}, {"smiles": "O=C(Nc1cc(F)cc(F)c1)c1ccc(Cl)c(S(=O)(=O)[C@H]2CC[C@H](O)CC2)c1", "note": "[Example 68]", "EC50": "0.1 to 0.4"}, {"smiles": "O=C(Nc1cc(F)c(F)c(F)c1)c1ccc(Cl)c(S(=O)(=O)[C@H]2C3CC[C@H]2C[C@](O)(/C=N/OCc2ccc([N+](=O)[O-])cc2)C3)c1", "note": "[Example 234]", "EC50": "0.1 to 0.4"}, {"smiles": "O=C(Nc1cc(F)c(F)c(F)c1)c1ccc(Cl)c(S(=O)(=O)[C@H]2C3CC[C@H]2C[C@](O)(COC/C=C/c2ccncc2)C3)c1", "note": "[Example 326]", "EC50": "> 0.4"}, {"smiles": "C=C1C2CCC1CC(S(=O)(=O)c1cc(C(=O)Nc3cc(F)c(F)c(F)c3)ccc1Cl)C2", "note": "(centres unmarked) [Example 207]", "EC50": "> 0.4"}, {"smiles": "COC(=O)C1OCN(Cc2ccccc2)[C@]12CC1CC[C@@H](C2)[C@H]1S(=O)(=O)c1cc(C(=O)Nc2cc(F)c(F)c(F)c2)ccc1Cl", "note": "(some centres unmarked) [Example 212]", "EC50": "> 0.4"}, {"smiles": "O=C(Nc1cc(F)c(F)c(F)c1)c1ccc(Cl)c(S(=O)(=O)[C@H]2CC[C@@H](CO)CC2)c1", "note": "[Example 114]", "EC50": "0.1 to 0.4"}, {"smiles": "CC(C)[C@H](NC[C@]1(O)C2CCC1C[C@@H](S(=O)(=O)c1cc(C(=O)Nc3cc(F)c(F)c(F)c3)ccc1Cl)C2)C(=O)O", "note": "[Example 344]", "EC50": "> 0.4"}, {"smiles": "O=C(Nc1cc(F)c(F)c(F)c1)c1ccc(Cl)c(S(=O)(=O)[C@H]2C3CC[C@H]2C[C@@](O)(C#Cc2ccccc2)C3)c1", "note": "[Example 168]", "EC50": "> 0.4"}, {"smiles": "O=C(Nc1cc(F)c(F)c(F)c1)c1ccc(Cl)c(S(=O)(=O)[C@H]2C[C@H]3CC[C@@H](C2)O3)c1", "note": "[Example 357]", "EC50": "0.1 to 0.4"}, {"smiles": "O=C(Nc1cc(F)c(F)c(F)c1)c1ccc(Cl)c(S(=O)(=O)[C@H]2CC3CCC(C2)[C@@H]3CO)c1", "note": "[Example 250]", "EC50": "> 0.4"}, {"smiles": "O=C(Nc1cc(F)c(F)c(F)c1)c1ccc(Cl)c(S(=O)(=O)C[C@H]2CC[C@@H](O)CC2)c1", "note": "[Example 112]", "EC50": "< 0.1"}, {"smiles": "O=C1CCC(S(=O)(=O)c2cc(C(=O)Nc3cc(F)c(F)c(F)c3)ccc2Cl)CC1", "note": "[Example 2]", "EC50": "0.1 to 0.4"}, {"smiles": "O=C(Nc1cc(F)c(F)c(F)c1)c1ccc(Cl)c(S(=O)(=O)[C@H]2C3CC[C@H]2C(O)C(=O)C3)c1", "note": "(some centres unmarked) [Example 146]", "EC50": "< 0.1"}, {"smiles": "O=C(Nc1cc(F)c(F)c(F)c1)c1ccc(Cl)c(S(=O)(=O)C[C@H]2CC3CC2[C@H](O)[C@@H]3O)c1", "note": "(some centres unmarked) [Example 241]", "EC50": "< 0.1"}, {"smiles": "COC(=O)C1CON(Cc2ccccc2)C1C1=C[C@@H]2CCC(C1)[C@@H]2S(=O)(=O)c1cc(C(=O)Nc2cc(F)c(F)c(F)c2)ccc1Cl", "note": "(some centres unmarked) [Example 214]", "EC50": "0.1 to 0.4"}, {"smiles": "O=C(Nc1cc(F)c(F)c(F)c1)c1ccc(Cl)c(S(=O)(=O)[C@H]2C3CC[C@H]2C[C@](O)(/C=N/OCc2ccccc2)C3)c1", "note": "[Example 205]", "EC50": "< 0.1"}, {"smiles": "O=C1CC2CC[C@@H](C1)[C@H]2S(=O)(=O)c1cc(C(=O)Nc2cc(F)c(F)c(F)c2)ccc1Cl", "note": "[Example 130]", "EC50": "< 0.1"}, {"smiles": "Cc1ccc(CO/N=C/[C@]2(O)CC3CC[C@@H](C2)[C@H]3S(=O)(=O)c2cc(C(=O)Nc3cc(F)c(F)c(F)c3)ccc2Cl)cc1", "note": "[Example 230]", "EC50": "0.1 to 0.4"}, {"smiles": "O=C(Nc1cc(F)c(F)c(F)c1)c1ccc(Cl)c(S(=O)(=O)[C@@H]2C3C=C(CO)CC2CC3)c1", "note": "(some centres unmarked) [Example 141]", "EC50": "0.1 to 0.4"}]}, {"test_system": "HBV", "experiment": "HepAD38 antiviral assay: reduction of viral product accumulation (virion DNA by qPCR, HBsAg or HBeAg by ELISA)", "format": "cell-based, hepatitis B virus", "conditions": "Hepatitis B virus, HePAD38, 120 h, read-out: HepAD38 EC50", "experimental": "as §1, §2", "units": {"EC50": "µM"}, "values": [{"smiles": "CC(C)(C)[Si](C)(C)O[C@H]1C2CCC1C[C@@H](Sc1cc(C(=O)Nc3cc(F)c(F)c(F)c3)ccc1Cl)C2", "note": "[Example 189]", "EC50": "0.1 to 0.4"}]}]}
